The results in this text go back to US20260225997A1, “IONIZABLE AMINE LIPIDS” (Intellia Therapeutics, Inc., priority 2018, published 2026).

A word on the pKa: it is the pH at which an ionisable group is half protonated. Higher therefore signals a group that holds its proton tightly.

Data set [1] concerns TTR. Description: TTR editing in mouse liver by NGS after i.v. LNP delivery of Cas9 mRNA and sgRNA. Type of data set: in vivo. The following applies: CD-1 female mice. On the procedure: Preparations of various LNP compositions were prepared with amine lipids. In assays for percent liver editing in mice, Cas9 mRNA and chemically modified sgRNA were formulated in LNPs, at either a 1:1 w/w ratio or a 1:2 w/w ratio. LNPs are formulated with a composition of a given ionizable lipid (e.g. an amine lipid), DSPC, cholesterol, and PEG-2k-DMG, with a 6.0 N:P ratio.
(§1) CD-1 female mice, ranging from 6-10 weeks of age were used in each study. Animals were weighed and grouped according to body weight for preparing dosing solutions based on group average weight. LNPs were dosed via the lateral tail vein in a volume of 0.2 mL per animal (approximately 10 mL per kilogram body weight). The animals were periodically observed post dose for adverse effects for at least 24 hours post dose. Animals were euthanized at 6 or 7 days by exsanguination via cardiac puncture under isoflurane anesthesia. Blood was collected into serum separator tubes or into tubes containing buffered sodium citrate for plasma as described herein. For studies involving in vivo editing, liver tissue was collected from each animal for DNA extraction and analysis.
Cohorts of mice were measured for liver editing by Next-Generation Sequencing (NGS).
In brief, to quantitatively determine the efficiency of editing at the target location in the genome, genomic DNA was isolated and deep sequencing was utilized to identify the presence of insertions and deletions introduced by gene editing.
PCR primers were designed around the target site (e.g., B2M), and the genomic area of interest was amplified. Additional PCR was performed according to the manufacturer's protocols (Illumina) to add the necessary chemistry for sequencing. The amplicons were sequenced on an Illumina MiSeq instrument. The reads were aligned to the […] after eliminating those having low quality scores. The resulting files containing the reads were mapped to the reference genome (BAM files), where reads that overlapped the target region of interest were selected and the number of wild type reads versus the number of reads which contain an insertion, substitution, or deletion was calculated.
The editing percentage (e.g., the “editing efficiency” or “percent editing”) is defined as the total number of sequence reads with insertions or deletions over the total number of sequence reads, including wild type.
CD-1 female mice were dosed i.v. at 0.1 mpk or 0.3 mpk. At 6 days post-dose, animals were sacrificed. For animals dosed with G282 targeting TTR, blood and the liver were collected and serum TTR and editing were measured. For animals dosed with G650 targeting B2M, liver was collected and editing was measured.

Data set [2] relates to TTR. The data set can be described thus: Transthyretin (TTR) ELISA analysis of mouse serum after LNP dosing. The following applies: for response vs control in vivo at 0.1 mg/kg / response vs control in vivo at 0.03 mg/kg / inhibition in vivo at 0.03 mg/kg: Mus musculus, iv; for response vs control in vivo at 0.1 mg/kg / response vs control in vivo at 0.03 mg/kg: read-out: Serum TTR % TSS; for inhibition in vivo at 0.03 mg/kg: read-out: Serum TTR (% KD). Type of data set: in vivo. On the procedure:
as §1
CD-1 female mice were dosed i.v. at 0.1 mpk or 0.3 mpk. […] For animals dosed with G282 targeting TTR, blood and the liver were collected and serum TTR and editing were measured. For animals dosed with G650 targeting B2M, liver was collected and editing was measured.
Blood was collected and the serum was isolated as indicated. The total mouse TTR serum levels were determined using a Mouse Prealbumin (Transthyretin) ELISA Kit (Aviva Systems Biology, Cat. OKIA00111). Briefly, sera were serial diluted with kit sample diluent to a final dilution of 10,000-fold for 0.1 mpk dose and 2,500-fold for 0.3 mpk. This diluted sample was then added to the ELISA plates and the assay was then carried out according to directions.
A general note: An ELISA detects its analyte on a solid surface through an enzyme-linked reagent.

Data set [3] can be described thus: pKa measurement of unformulated amine lipid (fluorescence, method of Jayaraman et al.). Type of data set: physicochemical. The following applies: 100 μM in 0.1 M phosphate buffer pH 4.5-9.0. On the procedure: The pKa of each amine lipid was determined according to the method in Jayaraman, et al. (Angewandte Chemie, 2012) with the following adaptations. […] Lipid was diluted to 100 μM in 0.1 M phosphate buffer (Boston Bioproducts) where the pH ranged from 4.5-9.0. Fluorescence intensity was measured using excitation and emission wavelengths of 321 nm and 448 nm.

Setting [4] is: Example 61: 0.1 mpk i.v., 7 days post-dose, G282 1:1.
Where [5] appears, read: 168 h, Example 61: 0.1 mpk i.v., 7 days post-dose, G282 1:1.
[6] abbreviates: Example 63: 0.03 mpk i.v., 7 days post-dose, G282 1:1.
[7] abbreviates: Example 63: 0.1 mpk i.v., 7 days post-dose, G282 1:1.
Setting [8] is: 168 h, Example 63: 0.03 mpk i.v., 7 days post-dose, G282 1:1.
Setting [9] is: 168 h, Example 63: 0.1 mpk i.v., 7 days post-dose, G282 1:1.
Where [10] appears, read: Example 55: 0.1 mpk i.v., 7 days post-dose, G282 1:1.
[11] abbreviates: Example 59: 0.1 mpk i.v., 7 days post-dose, G282 1:1.
Setting [12] is: Example 62: 0.03 mpk i.v., 7 days post-dose, G282 1:2.
[13] abbreviates: Example 62: 0.1 mpk i.v., 7 days post-dose, G282 1:2.
Where [14] appears, read: Example 64: Dose 0.03 mpk (table) i.v., 7 days post-dose, G282 1:1.
The mark [15] stands for this setting: 168 h, Example 62: 0.03 mpk i.v., 7 days post-dose, G282 1:2.
Where [16] appears, read: 168 h, Example 62: 0.1 mpk i.v., 7 days post-dose, G282 1:2.
[17] abbreviates: 168 h, Example 64: Dose 0.03 mpk (table) i.v., 7 days post-dose, G282 1:1.
[18] abbreviates: Example 58: 0.1 mpk i.v., 6 days post-dose, G282 1:1.

Read-outs that look alike come from different tables or passages of the source.

With `CCCCCCCCCOC(=O)CCCCCCCN(CCO)CCCCCCCCC(OCCCCCCCC)OCCCCCCCC` [Compound 9, nonyl 8-((9,9-bis(octyloxy)nonyl)(2-hydroxyethyl)amino octanoate], the “Editing Mean % Indel” value in the data set with TTR [1] (setting [4]) is recorded as 52.1%. In addition, the “Serum TTR” value in the data set on TTR [2] (setting [4]) turned out to be 218 µg/mL. In addition, the response vs control in vivo at 0.1 mg/kg in the data set on TTR [2] (setting [5]) came out at 17%. Moreover, in data set [3], the pKa is 6.12.
For the compound `CCCCCCCCOC(CCCCCCCN(CCO)CCCCCCCC(=O)OCCCCC)OCCCCCCCC` [Compound 29, pentyl 8-((8,8-bis(octyloxy)octyl)(2-hydroxyethyl)amino)octanoate], the figures for the “Editing Mean % Indel” value in the data set with TTR [1] (setting [6]) and in the data set on TTR [1] (setting [7]) were 5.76% and 15.96%, respectively. Moreover, the “Serum TTR” value was 718.48 µg/mL in the data set with TTR [2] (setting [6]) and 660.46 µg/mL with TTR [2] (setting [7]). Further, the response vs control in vivo at 0.03 mg/kg with TTR [2] (setting [8]) was 89%. Besides, the response vs control in vivo at 0.1 mg/kg in the data set with TTR [2] (setting [9]) was found to be 81.8%. This compound had a pKa in data set [3] of 6.54.
For `CCCCCCCCCOC(=O)CCCCCCCN(CCO)CCCCCCC(OCCCCCCCC)OCCCCCCCC` [Compound 10, nonyl 8-((7,7-bis(octyloxy)heptyl)(2-hydroxyethyl)amino)octanoate], the “% Editing (TTR, liver)” value in the data set on TTR [1] (setting [10]) amounted to 50%. Moreover, the “Editing Mean % Indel” value is recorded as 60.1% in the data set with TTR [1] (setting [11]); 47.2% in the data set on TTR [1] (setting [4]); 15.6% in the data set on TTR [1] (setting [12]); 51.3% in the data set with TTR [1] (setting [13]); 27.2% in the data set on TTR [1] (setting [14]). The “Serum TTR” value in the data set on TTR [2] (setting [10]) amounted to 206 µg/mL; in the data set on TTR [2] (setting [11]), 80 µg/mL; in the data set on TTR [2] (setting [4]) it was 330 µg/mL; in the data set with TTR [2] (setting [12]), 424 µg/mL; with TTR [2] (setting [13]), 179 µg/mL; with TTR [2] (setting [14]) it was 409.2 µg/mL. Moreover, in the data set on TTR [2] (setting [10]), the “Serum TTR (% TSS)” value is on record as 18 % TSS. Besides, the response vs control in vivo at 0.1 mg/kg in the data set on TTR [2] (168 h, Example 59: 0.1 mpk i.v., 7 days post-dose, G282 1:1) turned out to be 9%; with TTR [2] (setting [5]) it was 26%; with TTR [2] (setting [16]), 28%. Further, the response vs control in vivo at 0.03 mg/kg in the data set with TTR [2] (setting [15]) is 67%. In the data set on TTR [2] (setting [17]), the inhibition in vivo at 0.03 mg/kg is 28.5%. Moreover, the pKa in data set [3] was found to be 6.05.
With `CCCCCCCCCOC(=O)CCCCCCCN(CCCCCCC(OCCCCCCCC)OCCCCCCCC)CCNC(C)=O` [Compound 41, nonyl 8-((2-acetamidoethyl)(7,7-bis(octyloxy)heptyl)amino)octanoate], the “Editing Mean % Indel” value in the data set with TTR [1] (setting [14]) was determined as 2.4%. The “Serum TTR” value in the data set with TTR [2] (setting [14]) was 567.1 µg/mL. For the same compound, the inhibition in vivo at 0.03 mg/kg with TTR [2] (setting [17]) worked out at 1%. This compound gave a pKa in data set [3] of 6.82.
`CCCCCCCCOC(CCCCCCCN(CCO)CCCCCCCC(=O)OCCCCCCC)OCCCCCCCC` [Compound 15, heptyl 8-((8,8-bis(octyloxy)octyl)(2-hydroxyethyl)amino)octanoate]: the “Editing Mean % Indel” value in the data set on TTR [1] (setting [18]) was determined as 50.3%; in the data set on TTR [1] (setting [12]), 16.4%; in the data set on TTR [1] (setting [13]), 57.4%. Besides, the “Serum TTR” value turned out to be 179 µg/mL in the data set with TTR [2] (setting [18]), 548 µg/mL with TTR [2] (setting [12]) and 180 µg/mL in the data set with TTR [2] (setting [13]). The response vs control in vivo at 0.1 mg/kg came to 18% in the data set with TTR [2] (144 h, Example 58: 0.1 mpk i.v., 6 days post-dose, G282 1:1) and 28% with TTR [2] (setting [16]). Also, in the data set on TTR [2] (setting [15]), the response vs control in vivo at 0.03 mg/kg was determined as 86%. Besides, the pKa in data set [3] was determined as 6.34.
In the case of `CCCCCCCCOC(CCCCCCCN(CCO)CCCCCCCC(=O)OC(C)CCCCCC)OCCCCCCCC` (stereo not drawn) [Compound 27, octan-2-yl 8-((8,8-bis(octyloxy)octyl)(2-hydroxyethyl)amino)octanoate], the figures for the “Editing Mean % Indel” value in the data set with TTR [1] (setting [6]) and in the data set on TTR [1] (setting [7]) were 27.86% and 57.10%, respectively. Besides, the “Serum TTR” value came out at 497.99 µg/mL with TTR [2] (setting [6]) and 197.22 µg/mL in the data set on TTR [2] (setting [7]). The response vs control in vivo at 0.03 mg/kg with TTR [2] (setting [8]) was found to be 61.7%. For the same compound, the response vs control in vivo at 0.1 mg/kg with TTR [2] (setting [9]) came out at 24.4%. This compound also registered a pKa in data set [3] of 6.41.
